Key:
[1] = solubility / solubilization in the MCT carrier oil; settings: for stable solution concentration in MCTs: MCTs (0.0-6.0% C6, 6.0-60% C8, 6.0-60% C10), stirring at 85 degrees Celsius for 5 minutes
Description: The process for solubilizing target compounds according to the disclosure comprises, in particular, the following steps: (a) preparation of a carrier liquid solution comprising a mixture of medium-chain triglycerides, an amount of this carrier liquid solution is used, the amount depending on the amount of target compound to be solubilized; (b) admixing the carrier liquid solution with the target compound; (c) and, optionally, admixing a stabilizing compound to the carrier liquid/target compound. In some cases, depending on the compound to be solubilized, solvents that dissolve both polar and non-polar compounds such as ethanol, methanol, acetonitrile, 1-butanol or isopropyl alcohol, may be added to encourage solubilization, and then removed by vacuum evaporation. As another aspect, during compounding, dry inert gas may be filtered through the mixture to remove moisture.
Riboflavin is known to have poor solubility in aqueous solutions and organic solvents. […] It may be desirable to solubilize a higher concentration of riboflavin in an ENDS. […] This mixture may then be added to MCTs (for example 0.0-6.0% C6, 6.0-60% C8, and/or 6.0-60% C10), homogenized for 5 minutes and subsequently heated to approximately 85 degrees Celsius at 250 mb (or 250 hPa) pressure in a rotary evaporator to drive off the methanol.
Another example may be sulbutiamine. Sulbutiamine is a disulfide dimer of thiamine. […] It may be desirable to provide sulbutiamine in an ENDS. […]

[2] = cited from earlier work
[3] = cited from earlier work; remark: listed apart in the source
[4] = cited from earlier work; remark: listed apart in the source
[5] = cited from earlier work; remark: listed apart in the source

SMILES: CC(=C(CCOC(=O)C(C)C)SSC(CCOC(=O)C(C)C)=C(C)N(C=O)Cc1cnc(C)nc1N)N(C=O)Cc1cnc(C)nc1N (stereo in doubt) [sulbutiamine, reference compound]
- stable solution concentration in MCTs [1]: 200 mg/mL
- solubility in fats [2]: highly soluble
- solubility in aqueous solutions ([3]; aqueous solutions): insoluble

SMILES: CC1=C(/C=C/C(C)=C/C=C/C(C)=C/C=C/C=C(C)/C=C/C=C(C)/C=C/C2=C(C)C(=O)[C@@H](O)CC2(C)C)C(C)(C)C[C@H](O)C1=O [Astaxanthin]
- quantity incorporated into the carrier oil by admixing [1]: < 2 mg/mL

SMILES: C=C(C)[C@@H]1CCC(C)=C[C@H]1c1c(O)cc(CCCCC)cc1O [Cannabidiol, cannabidiol, reference compound]
- solubilized amount in MCTs ([1]; MCTs, stirring at 45 to 65 degrees Celsius for 5 minutes): up to 80 percent v/v

SMILES: CC1=CCCC(C)(C)C1/C=C/C(C)=C/C=C/C(C)=C/C=C/C=C(C)/C=C/C=C(C)/C=C/C1=C(C)CCCC1(C)C (stereo not drawn) [alpha-carotene]
- quantity incorporated into the carrier oil by admixing [1]: < 2 mg/mL

SMILES: CCCCCCCCCCCCCCCC(=O)OC[C@H](O)[C@H]1OC(=O)C(O)=C1O [ascorbyl palmitate]
- stable solution concentration in MCTs [1]: 200 mg/mL

SMILES: CC1=C[C@H](O)CC(C)(C)[C@H]1/C=C/C(C)=C/C=C/C(C)=C/C=C/C=C(C)/C=C/C=C(C)/C=C/C1=C(C)C[C@@H](O)CC1(C)C [lutein]
- stable solution concentration in MCTs [1]: 200 mg/mL

SMILES: CC(C)=CCC/C(C)=C/C=C/C(C)=C/C=C/C(C)=C/C=C/C=C(C)/C=C/C=C(C)/C=C/C=C(\C)CCC=C(C)C [lycopene]
- stable solution concentration in MCTs [1]: 200 mg/mL

SMILES: O=C(O)Cc1ccccc1 [phenylacetic acid]
- log P (partition co-efficient) [4]: comparable to benzoic acid
- pKa [5]: comparable to benzoic acid

SMILES: Cc1cc2nc3c(=O)[nH]c(=O)nc-3n(C[C@H](O)[C@H](O)[C@H](O)CO)c2cc1C [riboflavin]
- solubility in MCTs versus aqueous solutions [1]: an order of magnitude greater solubility
- solubility in vegetable glycerin, propylene glycol and water ([3]; vegetable glycerin, propylene glycol and water): less than 0.2 mg/ml

SMILES: C=C1CC[C@H](O)C/C1=C/C=C1\CCC[C@]2(C)[C@@H]([C@H](C)CCCC(C)C)CC[C@@H]12 [vitamin-D3]
- miscibility with the carrier oil ([1]; simple admixing with the carrier oil): any proportion

From patent publication US10376586B2, “Method and compositions for solubilizing non-polar constituents” (Entourage Bioscience, LLC, priority 2016, dated 2019)
